Data reported in PubChem BioAssay (NCI).
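Protocol summary: plate cells (96-well), add compound at 5 concentrations, incubate 48 h, interpolate endpoints linearly. The concentration for 50% growth inhibition is given as GI50. Definition used: TGI = concentration required for complete inhibition of growth.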

Columns and labels:
Assay in all cases: growth of human tumour cells (NCI), 48 h
SW-620 colon = tested on: SW-620 colon
SF-268 CNS = tested on: SF-268 CNS
T-47D breast = tested on: T-47D breast
OVCAR-3 ovarian = tested on: OVCAR-3 ovarian
UO-31 renal = tested on: UO-31 renal
K-562 leukemia = tested on: K-562 leukemia
CAKI-1 renal = tested on: CAKI-1 renal
SNB-75 CNS = tested on: SNB-75 CNS
OVCAR-8 ovarian = tested on: OVCAR-8 ovarian
HS 578T breast = tested on: HS 578T breast

SMILES	TGI (SW-620 colon) [µM]	TGI (SF-268 CNS) [µM]	TGI (T-47D breast) [µM]	TGI (OVCAR-3 ovarian) [µM]	TGI (UO-31 renal) [µM]	TGI (K-562 leukemia) [µM]	TGI (CAKI-1 renal) [µM]	TGI (SNB-75 CNS) [µM]	TGI (OVCAR-8 ovarian) [µM]	TGI (HS 578T breast) [µM]	GI50 (SW-620 colon) [µM]	GI50 (SF-268 CNS) [µM]	GI50 (T-47D breast) [µM]	GI50 (OVCAR-3 ovarian) [µM]	GI50 (UO-31 renal) [µM]	GI50 (K-562 leukemia) [µM]	GI50 (CAKI-1 renal) [µM]	GI50 (SNB-75 CNS) [µM]	GI50 (OVCAR-8 ovarian) [µM]	GI50 (HS 578T breast) [µM]
O=c1oc2cc(O)ccc2c(O)c1C(c1ccccc1F)c1c(O)c2ccc(O)cc2oc1=O	> 100	> 100	> 100	> 100	> 100	69	> 100	> 100	> 100	> 100										
O=C(O)Cc1cccc2c1OC(c1ccccc1)C(Cl)(C(=O)c1ccccc1)C2=O (stereo not given)	21.2	76.1	40.2	31.9	31.9	22.6	31.6	40.9	65.2	99.6										
O=S1(=O)N(CCNc2nccc(-c3c(-c4cccc(O)c4)nc4sccn34)n2)CCN1Cc1ccccc1	> 50	> 50	27	> 50	39.3	> 50	17.8	> 50	> 50	16.6	7.87	15.3	5.16	6.23	3.01	3.44	4.4	9.38	4.88	2.78
CC(=NNC(=S)Nc1ccc(C)cc1)c1cccc(C(C)=NNC(=S)Nc2ccc(C)cc2)n1	59.8	> 100	> 100	14.3	> 100	66.3	40.3	85	34.5	> 100										
O=c1[nH]nc(Cc2ccccc2)[nH]1	> 100	> 100	> 100	> 100	> 100	> 100	> 100	> 100	> 100	> 100										
Cc1cccc2c(N)c3cccc(C(=O)NCC[N+](C)(C)Cc4c([N+](=O)[O-])ncn4C)c3nc12	> 100	> 100	> 100	> 100	69.1	> 100	23.9	> 100	> 95.5	> 96.1										
CC(C)(C)c1ccc(-c2nc3ccc(Cl)cc3c(=O)o2)cc1	> 100	77.3	> 100	34.6	77.6	67.8	63.9	81.6	49.3	> 100										
COc1cc(/C=C2\N=C(c3ccccc3)N(c3nc4c(OC)ccc(OC)c4s3)C2=O)ccc1O	> 100	> 100	26.4	> 100	> 100	42.4	> 100	93.2	> 100	> 100										
C=C1CC[C@H](O)C(C)(C)[C@@H]1CC/C(C)=C/CC/C=C(\C)CC/C=C(\C)CCC=C(C)C	> 100	> 100	59.3	> 100	> 100	> 100	> 100	> 100	> 100	> 100										
COC/C=C\[C@]1(O)CCCC[C@@H]1CC(OC)OC	> 100	> 100	> 100	> 100	> 100	> 100	> 100	> 100	> 100	> 100										
NCCCCC(N)C(=O)NCCNc1ccc(NCCNC(=O)C(N)CCCCN)c2c1C(=O)c1ccccc1C2=O (stereo not given)	> 100	> 100	> 100	> 100	> 100	> 100	> 100	> 100	> 69	> 100										
COc1cc(O)c2c(c1)OCC(Cc1ccc(O)cc1)C2=O (stereo not given)	> 100	> 100	> 100	> 100	> 100	> 100	> 100	> 100	> 100	> 100										
COc1ccccc1N1CCN(CCCN2/C(=C(\O)c3ccccc3)C(=O)c3c(C)cc(C)nc3S2(=O)=O)CC1	> 100	> 100	> 100	> 100	> 100	> 100	> 100	30.8	> 100	> 100										
NC(CCC(=O)O)C(=O)N1CCN(c2nc(N3CCCC3)c3nc(Cl)c(NCc4ccccc4)nc3n2)CC1 (stereo not given)	51.3	29.1	21.3	22.9	21.6	35.7	39.6	25.3	38.6	60.2										
